# Assay results reported in patent US10259810B2, “N-sulfonylated pyrazolo[3,4-b]pyridin-6-carboxamides and method of use” (AbbVie S.à.r.l., priority 2015, dated 2019).
# Where two headings read alike, the source gives them in different places.
# Target: T1, ΔF508-CFTR (Homo sapiens, UniProt P13569, DEL508-508)
# T1 construct: host or cells: CFBE41o-, doxycycline-inducible
# Assay: CFTR cell surface levels using HRP-tagged ΔF508-CFTR expressing CFBE cells, in the presence of a co-corrector
# Assay type: cell-based
# Excerpt: Measuring CFTR Cell Surface Levels Using HRP-Tagged ΔF508-CFTR Expressing CFBE Cells
# The HRP-tagged ΔF508-CFTR cell assay measures the expression of CFTR-ΔF508 at the plasma membrane. CFTR-ΔF508 has a folding defect leading to absence of protein at the plasma membrane. This assay is used to evaluate the capacity of compounds to increase the expression of CFTR-ΔF508 at the plasma membrane. The CFTR-ΔF508 is tagged with HRP (horse radish peroxidase enzyme) within the ECL4 (Extracellular loop 4) of CFTR (Phuan, P.-W. et al. Synergy-based small-molecule screen using a human lung epithelial cell line yields ΔF508-CFTR correctors that augment VX-809 maximal efficacy. Mol. Pharmacol. 86, 42-51 (2014)). When HRP-tagged ΔF508-CFTR is present at the plasma membrane, the HRP enzyme activity can be measured. The amount of CFTR-ΔF508 that can be rescued to the plasma membrane is correlated with the amount of functional enzyme that can be measured.
# There are several ways to measure the capacity of compounds to rescue CFTR-ΔF508 to the plasma membrane; either compounds are evaluated on their own and the impact on plasma membrane levels is measured or compounds are evaluated in combination with a co-corrector, i.e. a compound that rescues CFTR-ΔF508 to the plasma membrane but rescue can be enhanced by addition of compounds due to a complementary mode of action.
# Activity of Compounds in Combination with Co-Corrector:
# For this purpose doxycycline-inducible ΔF508-CFTR-HRP expressing CFBE4lo− cells (obtained from Gergely Lukacs, McGill University) were maintained in MEM (Minimum Essential Medium, Gibco; 31095) supplemented with 10% fetal bovine serum (Hyclone; SV30160.03) under puromycin (3 μg/mL) and G418 selection (0.2 mg/mL). For compound testing, cells were seeded at 4000 cells/well in white 384-well plates (Greiner; 781080) in 50 μL of medium containing 0.5 μg/mL doxycycline and incubated for 68 hours at 37° C., 5% CO2. On day four, 10 μL of test compounds diluted in PBS (phosphate buffered saline) were added to the plates at a final DMSO concentration of 0.1%. In order to measure compound synergy with a co-corrector, 3 μM co-corrector (3-[(2R,4R)-4-({[1-(2,2-difluoro-1,3-benzodioxol-5-yl)cyclopropyl]carbonyl}amino)-7-methoxy-3,4-dihydro-2H-chromen-2-yl]benzoic acid) was added along with test compounds. All compound plates contained negative controls (DMSO) and positive controls (3 μM co-corrector). Cell plates were incubated at 33° C., 5% CO2 for 20 hours. On day five, the cells were washed five times with phosphate-buffered saline, and HRP activity was assayed by the addition of 50 μL/well of HRP substrate (SuperSignal™ West Pico Chemiluminescent Substrate, Thermo Scientific; 34080). After incubation for 15 minutes in the dark, the chemiluminescence was measured using a plate reader (EnVision®, Perkin Elmer). Raw data were normalized to percentage activity values using the equation: 100×(Sample−Negative control)/(Positive control−Negative Control).
# [1] = HRP-tagged ΔF508-CFTR CFBE cells, in the presence of 3 μM co-corrector
# [2] = HRP-tagged ΔF508-CFTR CFBE cells, in the presence of 3 μM co-corrector, read-out: EC50
# T1 sequence (P13569 with tags, fused parts or gaps DEL508-508): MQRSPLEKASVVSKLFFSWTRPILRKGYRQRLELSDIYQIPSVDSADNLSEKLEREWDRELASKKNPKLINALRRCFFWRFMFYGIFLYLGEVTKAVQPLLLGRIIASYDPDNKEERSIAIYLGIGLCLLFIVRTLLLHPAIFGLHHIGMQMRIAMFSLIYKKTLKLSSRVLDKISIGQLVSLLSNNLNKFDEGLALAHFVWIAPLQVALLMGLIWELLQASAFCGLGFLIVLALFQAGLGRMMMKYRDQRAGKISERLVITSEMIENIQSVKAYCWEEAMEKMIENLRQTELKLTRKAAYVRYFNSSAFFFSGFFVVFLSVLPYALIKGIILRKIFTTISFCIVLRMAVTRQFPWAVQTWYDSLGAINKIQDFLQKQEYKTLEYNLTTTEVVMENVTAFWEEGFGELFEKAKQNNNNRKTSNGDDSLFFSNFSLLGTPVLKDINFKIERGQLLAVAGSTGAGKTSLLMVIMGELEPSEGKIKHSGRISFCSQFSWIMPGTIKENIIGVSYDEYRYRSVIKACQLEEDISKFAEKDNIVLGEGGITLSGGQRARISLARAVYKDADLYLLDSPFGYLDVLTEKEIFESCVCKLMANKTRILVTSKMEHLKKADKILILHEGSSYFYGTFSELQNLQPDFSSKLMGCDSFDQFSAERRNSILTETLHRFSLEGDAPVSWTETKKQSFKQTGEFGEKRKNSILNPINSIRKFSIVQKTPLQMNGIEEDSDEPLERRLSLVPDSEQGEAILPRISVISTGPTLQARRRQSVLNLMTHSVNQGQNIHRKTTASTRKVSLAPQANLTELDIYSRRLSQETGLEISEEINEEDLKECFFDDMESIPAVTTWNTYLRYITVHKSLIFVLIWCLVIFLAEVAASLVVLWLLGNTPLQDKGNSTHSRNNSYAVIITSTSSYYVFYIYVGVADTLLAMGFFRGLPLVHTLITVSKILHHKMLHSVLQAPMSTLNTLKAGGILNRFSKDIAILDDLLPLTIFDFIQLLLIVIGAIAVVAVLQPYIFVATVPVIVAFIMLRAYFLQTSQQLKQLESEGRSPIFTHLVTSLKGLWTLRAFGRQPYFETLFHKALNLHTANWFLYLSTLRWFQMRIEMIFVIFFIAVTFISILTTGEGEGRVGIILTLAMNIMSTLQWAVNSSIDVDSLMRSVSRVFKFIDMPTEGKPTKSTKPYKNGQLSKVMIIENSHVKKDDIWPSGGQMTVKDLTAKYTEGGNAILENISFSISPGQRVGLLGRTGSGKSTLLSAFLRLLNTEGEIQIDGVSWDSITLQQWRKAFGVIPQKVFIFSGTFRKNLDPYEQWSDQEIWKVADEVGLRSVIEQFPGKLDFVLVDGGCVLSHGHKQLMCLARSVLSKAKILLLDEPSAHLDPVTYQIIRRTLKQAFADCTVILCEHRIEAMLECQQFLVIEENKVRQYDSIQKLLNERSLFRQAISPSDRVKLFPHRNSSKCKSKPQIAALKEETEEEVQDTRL
SMILES,% Activation [1] [%],EC50 [2] [nM],EC50 [nM]
"COCC1(F)CCN(c2cc(C(=O)NS(C)(=O)=O)nc3c2c(C(C)C)nn3-c2ccc(F)cc2)CC1 [Compound 345, 4-[4-fluoro-4-(methoxymethyl)piperidin-1-yl]-1-(4-fluorophenyl)-N-(methanesulfonyl)-3-(propan-2-yl)-1H-pyrazolo[3,4-b]pyridine-6-carboxamide]",301.1,223,
"O=C(NS(=O)(=O)N1CCOCC1)c1cc(OCC2CCOCC2)c2c(C3CCC3)nn(-c3ccccc3)c2n1 [Compound 358, 3-cyclobutyl-N-(morpholine-4-sulfonyl)-4-[(oxan-4-yl)methoxy]-1-phenyl-1H-pyrazolo[3,4-b]pyridine-6-carboxamide]",242.33,89.9,
"O=C(NS(=O)(=O)N1CCC(N2CCOCC2)CC1)c1cc(OCC2CCOCC2)c2c(C3CCC3)nn(-c3ccccc3)c2n1 [Compound 359, 3-cyclobutyl-N-[4-(morpholin-4-yl)piperidine-1-sulfonyl]-4-[(oxan-4-yl)methoxy]-1-phenyl-1H-pyrazolo[3,4-b]pyridine-6-carboxamide]",236.25,299,
"CN1CCN(C(=O)C2CCN(S(=O)(=O)NC(=O)c3cc(OCC4CCOCC4)c4c(C5CCC5)nn(-c5ccccc5)c4n3)CC2)CC1 [Compound 360, 3-cyclobutyl-N-[4-(4-methylpiperazine-1-carbonyl)piperidine-1-sulfonyl]-4-[(oxan-4-yl)methoxy]-1-phenyl-1H-pyrazolo[3,4-b]pyridine-6-carboxamide]",182.8,101,
"CN1CCN(S(=O)(=O)NC(=O)c2cc(OCC3CCOCC3)c3c(C4CCC4)nn(-c4ccccc4)c3n2)CC1 [Compound 361, 3-cyclobutyl-N-(4-methylpiperazine-1-sulfonyl)-4-[(oxan-4-yl)methoxy]-1-phenyl-1H-pyrazolo[3,4-b]pyridine-6-carboxamide]",204.1,181,
"CC(C)(C)S(=O)(=O)NC(=O)c1cc(OCC2CCOCC2)c2c(C3CCC3)nn(-c3ccccc3)c2n1 [Compound 362, 3-cyclobutyl-N-(2-methylpropane-2-sulfonyl)-4-[(oxan-4-yl)methoxy]-1-phenyl-1H-pyrazolo[3,4-b]pyridine-6-carboxamide]",195.75,414,
"C#CCCS(=O)(=O)NC(=O)c1cc(-c2ccc(N=[N+]=[N-])cc2)c2c(C(C)C)nn(-c3cccc(N(C)C)c3)c2n1 [Compound 363, 4-(4-azidophenyl)-N-(but-3-yne-1-sulfonyl)-1-[3-(dimethylamino)phenyl]-3-(propan-2-yl)-1H-pyrazolo[3,4-b]pyridine-6-carboxamide]",415.8,116,
"COCC1CCN(c2cc(C(=O)NS(=O)(=O)CC#N)nc3c2c(C2CCC2)nn3-c2ccccc2)CC1 [Compound 364, N-(cyanomethanesulfonyl)-3-cyclobutyl-4-[4-(methoxymethyl)piperidin-1-yl]-1-phenyl-1H-pyrazolo[3,4-b]pyridine-6-carboxamide]",575,553,
"COCC1CCN(c2cc(C(=O)NS(=O)(=O)CCn3cccn3)nc3c2c(C2CCC2)nn3-c2ccccc2)CC1 [Compound 372, 3-cyclobutyl-4-[4-(methoxymethyl)piperidin-1-yl]-1-phenyl-N-[2-(1H-pyrazol-1-yl)ethanesulfonyl]-1H-pyrazolo[3,4-b]pyridine-6-carboxamide]",615.7,2560,
"CC(C)c1nn(-c2ccc(F)cc2)c2nc(C(=O)NS(C)(=O)=O)cc(N3CCC(N4CCOCC4)CC3)c12 [Compound 411, 1-(4-fluorophenyl)-N-(methanesulfonyl)-4-[4-(morpholin-4-yl)piperidin-1-yl]-3-(propan-2-yl)-1H-pyrazolo[3,4-b]pyridine-6-carboxamide]",505,,478
"CC(C)c1nn(-c2ccc(F)cc2)c2nc(C(=O)NS(=O)(=O)N(C)C)cc(N3CCC(N4CCOCC4)CC3)c12 [Compound 412, N-(dimethylsulfamoyl)-1-(4-fluorophenyl)-4-[4-(morpholin-4-yl)piperidin-1-yl]-3-(propan-2-yl)-1H-pyrazolo[3,4-b]pyridine-6-carboxamide]",436.4,,201
"CCS(=O)(=O)NC(=O)c1cc(N2CCC(N3CCOCC3)CC2)c2c(C(C)C)nn(-c3ccc(F)cc3)c2n1 [Compound 413, N-(ethanesulfonyl)-1-(4-fluorophenyl)-4-[4-(morpholin-4-yl)piperidin-1-yl]-3-(propan-2-yl)-1H-pyrazolo[3,4-b]pyridine-6-carboxamide]",455.9,,90.6
"CC(C)c1nn(-c2ccc(F)cc2)c2nc(C(=O)NS(=O)(=O)C3CC3)cc(N3CCC(N4CCOCC4)CC3)c12 [Compound 414, N-(cyclopropanesulfonyl)-1-(4-fluorophenyl)-4-[4-(morpholin-4-yl)piperidin-1-yl]-3-(propan-2-yl)-1H-pyrazolo[3,4-b]pyridine-6-carboxamide]",508.3,,159
"CCS(=O)(=O)NC(=O)c1cc(N2CCC(N3CCCCC3)CC2)c2c(C3CCC3)nn(-c3ccccc3)c2n1 [Compound 427, 4-([1,4′-bipiperidin]-1′-yl)-3-cyclobutyl-N-(ethanesulfonyl)-1-phenyl-1H-pyrazolo[3,4-b]pyridine-6-carboxamide]",419.5,,162
"O=C(NS(=O)(=O)C1CC1)c1cc(N2CCC(N3CCCCC3)CC2)c2c(C3CCC3)nn(-c3ccccc3)c2n1 [Compound 428, 4-([1,4′-bipiperidin]-1′-yl)-3-cyclobutyl-N-(cyclopropanesulfonyl)-1-phenyl-1H-pyrazolo[3,4-b]pyridine-6-carboxamide]",434.7,,77.3
"CC(C)Oc1nn(C2CCCCC2)c2nc(C(=O)NS(=O)(=O)N(C)C)cc(-c3ccc(CN4CCCCC4)cc3)c12 [Compound 443, 1-cyclohexyl-N-(dimethylsulfamoyl)-4-{4-[(piperidin-1-yl)methyl]phenyl}-3-[(propan-2-yl)oxy]-1H-pyrazolo[3,4-b]pyridine-6-carboxamide]",332.5,184,
"CCS(=O)(=O)NC(=O)c1cc(N2CCC(C(C)N3CCOCC3)CC2)c2c(C3CCC3)nn(-c3ccc(F)cc3)c2n1 (stereo not shown) [Compound 446, 3-cyclobutyl-N-(ethanesulfonyl)-1-(4-fluorophenyl)-4-{4-[1-(morpholin-4-yl)ethyl]piperidin-1-yl}-1H-pyrazolo[3,4-b]pyridine-6-carboxamide]",669.9,77.4,
"O=C(NS(=O)(=O)C1CCOC1)c1cc(-c2ccc(CN3CCOCC3)cc2)c2c(OC3CCC3)nn(C3CCCCC3)c2n1 (stereo not shown) [Compound 467, 3-(cyclobutyloxy)-1-cyclohexyl-4-{4-[(morpholin-4-yl)methyl]phenyl}-N-(oxolane-3-sulfonyl)-1H-pyrazolo[3,4-b]pyridine-6-carboxamide]",229.15,270,
"O=C(NS(=O)(=O)C1CCOC1)c1cc(N2CCN(c3ccncc3)CC2)c2c(C3CCC3)nn(C3CCCCC3)c2n1 (stereo not shown) [Compound 468, 3-cyclobutyl-1-cyclohexyl-N-(oxolane-3-sulfonyl)-4-[4-(pyridin-4-yl)piperazin-1-yl]-1H-pyrazolo[3,4-b]pyridine-6-carboxamide]",443.05,524,
"CC(C)N1CCN(c2ccc(-c3cc(C(=O)NS(=O)(=O)N(C)C)nc4c3c(C3CCC3)nn4C3CCCCC3)cc2)CC1 [Compound 547, 3-cyclobutyl-1-cyclohexyl-N-(dimethylsulfamoyl)-4-{4-[4-(propan-2-yl)piperazin-1-yl]phenyl}-1H-pyrazolo[3,4-b]pyridine-6-carboxamide]",372.95,349,
